Laboratory results reported in ChEMBL document CHEMBL1151102, “Macrocyclic pyrrolizidine alkaloids from Senecio anonymus. Separation of a complex alkaloid extract using droplet counter-current chromatography” (J Nat Prod, 1988).
Values after ≈ are worked out from the molar mass of the structure shown.

tested on: A204; experiment: Cytotoxicity against human A204 cells after 24 hrs by soft agar colony forming assay; type: functional, cell-based; conditions: A204, 24 h

SMILES | IC50 [µg/mL]
C[C@@H]1C/C(=C\CO)C(=O)O[C@@H]2CCN(C)C/C=C(/COC(=O)[C@]1(C)O)C2=O [ANONAMINE] | 153 (≈ 401 µM)
C/C=C1/C[C@@H](C)[C@](O)(CO)C(=O)OC/C2=C/CN(C)CC[C@@H](OC1=O)C2=O [HYDROXYSENKIRKINE] | 360 (≈ 944 µM)
C/C=C1\C[C@@H](C)[C@@](C)(O)C(=O)OCC2=CCN3CC[C@@H](OC1=O)[C@@H]23 [INTEGERRIMINE] | 120 (≈ 358 µM)
C[C@H]1C(=O)O[C@@H]2CCN3CC=C(COC(=O)[C@](C)(O)[C@]1(C)O)[C@H]23 [MONOCROTALINE] | 316 (≈ 971 µM)
C/C=C1/C[C@@H](C)[C@@](C)(O)C(=O)OC/C2=C/CN(C)CC[C@@H](OC1=O)C2=O [NEOSENKIRKINE] | 221 (≈ 605 µM)
C[C@@H]1C[C@@]2(O[C@H]2C)C(=O)O[C@@H]2CCN(C)C/C=C(/COC(=O)[C@]1(C)O)C2=O [OTOSENINE] | 130 (≈ 341 µM)
C/C=C1\C[C@@H](C)[C@](O)(CO)C(=O)OCC2=CCN3CC[C@@H](OC1=O)[C@@H]23 [RETRORSINE] | 120 (≈ 341 µM)
C/C=C1/C[C@@H](C)[C@@](C)(O)C(=O)OCC2=CC[N+]3([O-])CC[C@@H](OC1=O)[C@@H]23 (stereo not given in full) [SENECIONINE N-OXIDE] | 150 (≈ 427 µM)
C/C=C1/C[C@@H](C)[C@@](C)(O)C(=O)OCC2=CCN3CC[C@@H](OC1=O)[C@@H]23 [SENECIONINE] | 150 (≈ 447 µM)
C/C=C1\C[C@@H](C)[C@@](C)(O)C(=O)OC/C2=C/CN(C)CC[C@@H](OC1=O)C2=O [SENKIRKINE] | 260 (≈ 711 µM)
